Counter-ions that a name gives are not always drawn.
What follows are compounds tested on ZIKV replicon in Vero cells (assay: ZIKV Replication Inhibition Assay (replicon, NanoLuc)). Conditions: Zika virus, Vero, 72 h, read-out: Zika Replicon EC50.

SMILES | EC50
Cc1cc(NC(=O)[N-]c2c[n+](C(C)Cc3ccccc3)no2)cc(C(F)(F)F)c1 (stereo not drawn) [Example 33, ((3-methyl-5-(trifluoromethyl)phenyl)carbamoyl)(3-(1-phenylpropan-2-yl)-1,2,3-oxadiazol-3-ium-5-yl)amide] | > 20000 nM
Cc1noc(C)c1-c1cccc(C[n+]2cc([N-]C(=O)Nc3cccc(C(F)(F)F)c3)on2)c1 [Example 94, (3-(3-(3,5-dimethylisoxazol-4-yl)benzyl)-1,2,3-oxadiazol-3-ium-5-yl)((3-(trifluoromethyl)phenyl)carbamoyl)amide] | 100 to 1000 nM
COc1ncnc(C)c1-c1ccc(C[n+]2cc([N-]C(=O)Nc3cccc(C(F)(F)F)c3)on2)cc1 [Example 111, (3-(4-(4-methoxy-6-methylpyrimidin-5-yl)benzyl)-1,2,3-oxadiazol-3-ium-5-yl)((3-(trifluoromethyl)phenyl)carbamoyl)amide] | < 100 nM
O=C([N-]c1c[n+](C2Cc3ccccc3C2)no1)Nc1cccc(C(F)(F)F)c1 [Example 10, (3-(2,3-dihydro-1H-inden-2-yl)-1,2,3-oxadiazol-3-ium-5-yl)((3-(trifluoromethyl)phenyl)carbamoyl)amide] | 1000 to 20000 nM
Cc1ncc(-c2ccc(C[n+]3cc([N-]C(=O)Nc4cccc(C(F)(F)F)c4)on3)cc2)n1C [Example 105, (3-(4-(1,2-dimethyl-1H-imidazol-5-yl)benzyl)-1,2,3-oxadiazol-3-ium-5-yl)((3-(trifluoromethyl)phenyl)carbamoyl)amide] | 100 to 1000 nM
O=C([N-]c1c[n+](Cc2ccc(-c3cnn(C4CCNCC4)c3)cn2)no1)Nc1cccc(C(F)(F)F)c1 [Example 120, (3-((5-(1-(piperidin-4-yl)-1H-pyrazol-4-yl)pyridin-2-yl)methyl)-1,2,3-oxadiazol-3-ium-5-yl)((3-(trifluoromethyl)phenyl)carbamoyl)amide] | 1000 to 20000 nM
O=C([N-]c1c[n+](Cc2cccnc2)no1)Nc1cccc(C(F)(F)F)c1 [Example 29, (3-(pyridin-3-ylmethyl)-1,2,3-oxadiazol-3-ium-5-yl)((3-(trifluoromethyl)phenyl)carbamoyl)amide] | 1000 to 20000 nM
O=C([N-]c1c[n+](Cc2ccc(-c3cccc4c3CNC4)cn2)no1)Nc1cccc(C(F)(F)F)c1 [Example 119, (3-((5-(isoindolin-4-yl)pyridin-2-yl)methyl)-1,2,3-oxadiazol-3-ium-5-yl)((3-(trifluoromethyl)phenyl)carbamoyl)amide] | 100 to 1000 nM
NC[C@@H](Cc1ccc(-c2ccccc2)cc1)[n+]1cc([N-]C(=O)Nc2cccc(C(F)(F)F)c2)on1 [Example 66, (R)-(3-(1-([1,1′-biphenyl]-4-yl)-3-aminopropan-2-yl)-1,2,3-oxadiazol-3-ium-5-yl)((3-(trifluoromethyl)phenyl)carbamoyl)amide] | 1000 to 20000 nM
CC(Cc1ccccc1)[n+]1cc([N-]C(=O)Nc2cc(F)cc(C(F)(F)F)c2)on1 (stereo not drawn) [Example 11, ((3-fluoro-5-(trifluoromethyl)phenyl)carbamoyl)(3-(1-phenylpropan-2-yl)-1,2,3-oxadiazol-3-ium-5-yl)amide] | > 20000 nM
CC(C[n+]1cc([N-]C(=O)Nc2cccc(C(F)(F)F)c2)on1)c1ccccc1 (stereo not drawn) [Example 28, (3-(2-phenylpropyl)-1,2,3-oxadiazol-3-ium-5-yl)((3-(trifluoromethyl)phenyl)carbamoyl)amide] | 100 to 1000 nM
O=C([N-]c1c[n+]([C@H](CO)Cc2ccccc2)no1)Nc1cccc(C(F)(F)F)c1 [Example 32, (S)-(3-(1-hydroxy-3-phenylpropan-2-yl)-1,2,3-oxadiazol-3-ium-5-yl)((3-(trifluoromethyl)phenyl)carbamoyl)amide] | 1000 to 20000 nM
O=C([N-]c1c[n+](Cc2ccc(-c3cncnc3)nc2)no1)Nc1cccc(C(F)(F)F)c1 [Example 103, (3-((6-(pyrimidin-5-yl)pyridin-3-yl)methyl)-1,2,3-oxadiazol-3-ium-5-yl)((3-(trifluoromethyl)phenyl)carbamoyl)amide] | 100 to 1000 nM
Cc1ncncc1-c1cccc(C[n+]2cc([N-]C(=O)Nc3cccc(C(F)(F)F)c3)on2)c1 [Example 83, (3-(3-(4-methylpyrimidin-5-yl)benzyl)-1,2,3-oxadiazol-3-ium-5-yl)((3-(trifluoromethyl)phenyl)carbamoyl)amide] | 100 to 1000 nM
O=C([N-]c1c[n+](Cc2cccc(-c3ccccc3)c2)no1)Nc1cccc(C(F)(F)F)c1 [Example 27, (3-([1,1′-biphenyl]-3-ylmethyl)-1,2,3-oxadiazol-3-ium-5-yl)((3-(trifluoromethyl)phenyl)carbamoyl)amide] | 1000 to 20000 nM
C[C@@H](c1ccc(-c2cncnc2)cc1)[n+]1cc([N-]C(=O)Nc2cncc(C(F)(F)F)c2)on1 [Example 77, (S)-(3-(1-(4-(pyrimidin-5-yl)phenyl)ethyl)-1,2,3-oxadiazol-3-ium-5-yl)((5-(trifluoromethyl)pyridin-3-yl)carbamoyl)amide] | 100 to 1000 nM
O=C([N-]c1c[n+](CCc2ccccc2)no1)Nc1cccc(C(F)(F)F)c1 [Example 5, (3-phenethyl-1,2,3-oxadiazol-3-ium-5-yl)((3-(trifluoromethyl)phenyl)carbamoyl)amide] | 100 to 1000 nM
Cc1noc(C)c1-c1ccc([C@@H](CN)[n+]2cc([N-]C(=O)Nc3cccc(C(F)(F)F)c3)on2)cc1 [Example 116, (S)-(3-(2-amino-1-(4-(3,5-dimethylisoxazol-4-yl)phenyl)ethyl)-1,2,3-oxadiazol-3-ium-5-yl)((3-(trifluoromethyl)phenyl)carbamoyl)amide formate] | 100 to 1000 nM
Cc1ncnc(OCCN(C)C)c1-c1ccc(C[n+]2cc([N-]C(=O)Nc3cccc(C(F)(F)F)c3)on2)nc1 [Example 123, ((3-((5-(4-(2-(metheyliumyl(methyl)ammonio)ethoxy)-6-methylpyrimidin-5-yl)pyridin-2-yl)methyl)-1,2,3-oxadiazol-3-ium-5-yl)((3-(trifluoromethyl)phenyl)carbamoyl)amide) (2,2,2-trifluoroacetate)] | 100 to 1000 nM
Cc1ncnc(OCCO)c1-c1ccc(C[n+]2cc([N-]C(=O)Nc3cccc(C(F)(F)F)c3)on2)cc1 [Example 112, (3-(4-(4-(2-hydroxyethoxy)-6-methylpyrimidin-5-yl)benzyl)-1,2,3-oxadiazol-3-ium-5-yl)((3-(trifluoromethyl)phenyl)carbamoyl)amide] | < 100 nM
O=C([N-]c1on[n+](Cc2ccccc2)c1Cl)Nc1cccc(C(F)(F)F)c1 [Example 24, (3-Benzyl-4-chloro-1,2,3-oxadiazol-3-ium-5-yl)((3-(trifluoromethyl)phenyl)carbamoyl)amide] | > 20000 nM
Cc1nn(C)cc1-c1ccc(C[n+]2cc([N-]C(=O)Nc3cccc(C(F)(F)F)c3)on2)cc1 [Example 96, (3-(4-(1,3-dimethyl-1H-pyrazol-4-yl)benzyl)-1,2,3-oxadiazol-3-ium-5-yl)((3-(trifluoromethyl)phenyl)carbamoyl)amide] | 100 to 1000 nM
C[C@H](Cc1ccccc1)[n+]1cc([N-]C(=O)Nc2cccc(C(F)(F)F)c2)on1 [Example 13, (R)-(3-(1-phenylpropan-2-yl)-1,2,3-oxadiazol-3-ium-5-yl)((3-(trifluoromethyl)phenyl)carbamoyl)amide] | 1000 to 20000 nM
NC[C@H](Cc1ccccc1)[n+]1cc([N-]C(=O)Nc2cccc(C(F)(F)F)c2)on1 [Example 54, (S)-(3-(1-amino-3-phenylpropan-2-yl)-1,2,3-oxadiazol-3-ium-5-yl)((3-(trifluoromethyl)phenyl)carbamoyl)amide formate] | > 20000 nM

From patent US20250353853A1, “FLAVIVIRUS INHIBITORS” (IRBM S.P.A., priority 2022, published 2025)
